The source of these data is article PMC12612594, “Nuclear Magnetic Resonance‐based fragment screen of the E3 ligase Fem‐1 homolog B” (Protein Science : A Publication of the Protein Society, 2025).

Molecules are shown by their SMILES.

One assay has as its system recombinant mouse FEM1B. Details: method as in Henning et al., [2022]. The settings on record: TAMARA‐FNIP1 degron, ref Henning et al., [2022], read-out: 50% inhibitory concentration (IC50); cited from earlier work.
For assay [1], the system named is FEM1B. Details: method as in Henning et al., [2022]. The settings on record: ref Henning et al., [2022]; cited from earlier work.
Another assay addresses FEM1B‐12 (Homo sapiens, UniProt Q9UK73). The assay is described as follows: NMR titration (1H-13C-methyl SOFAST HMQC) of fragments. The assay is classed as binding. The settings on record: for Kd: fragment 0.0625–2 mM, 100 μM 13C-methyl labeled FEM1B‐12, 310 K, Hill's equation model, read-out: Kd (dissociation constant by NMR titration); for higher affinity than the reference molecule VU0417412: ratio of KD values vs VU0417412. The method, then:
Using ^1H‐^13C‐methyl SOFAST HMQC NMR, 4608 structurally diverse fragments were prepared as 12‐fragment mixtures at the concentration of 800 μM per compound and screened against 100 μM FEM1B‐12. The spectra of FEM1B in the presence of the fragment mixtures were compared to the spectrum of ligand‐free FEM1B to identify fragment hits. Twelve‐fragment mixture hits were subsequently deconvoluted by testing individual fragments for binding. In total, 18 fragment hits were identified ([…]) in the screen. Three chemical shift patterns were observed among the 18 fragment hits (Figure 2), with pattern three having two sub‐patterns with the same residues shifting in different directions. […] The dissociation constants of the fragments were determined by NMR titration using fragment concentrations ranging from 0.0625 to 2 mM (Figure 2) (Henning et al., [2022]).
All ^15N‐TROSY NMR experiments were carried out at 310 K using a 900 MHz Bruker Avance III spectrometer equipped with a TXI/TCI CryoProbe and a Bruker SampleJet. All 1H‐13C‐SOFAST HMQC NMR experiments were carried out at 310 K using a 600 MHz Bruker AV‐III‐600 Spectrometer with a TCI CryoProbe and a Bruker SampleJet. Two‐dimensional ^1H‐^15 TROSY spectra of 150 μM FEM1B‐12 and ^1H‐^13C‐SOFAST HMQC spectra of 100 μM FEM1B‐12 were recorded using 30‐min acquisition times and analyzed using Topspin 4.1.4 (Bruker).
HMQC titration experiments were used to determine binding affinity of the fragment hits identified from the screen. The changes in ^1H‐^13C chemical shifts of selectively labeled sidechain resonances upon the addition of increasing concentrations of the fragments (0.0625–2 mM) were analyzed. The binding affinities (KDs) of the fragments were calculated using the Hill's equation model in Prism 10 (GraphPad).

Assay [2] concerns FEM1B. Put plainly: LC-coupled tandem mass spectrometry, site of covalent attachment. Conditions: FEM1B incubated with five times the concentration of compound for 48 h, trypsin digest, LC-MS/MS. The assay is classed as binding. The method, then:
To assess the potential for covalent binding of VU0416476 to FEM1B, we used LC‐coupled tandem mass spectrometry to identify the site of covalent attachment. After FEM1B was incubated with five times the concentration of VU0416476 for 48 h, the protein was digested with sequencing‐grade trypsin, and peptides were analyzed by LC‐MS/MS.
FEM1B incubated with five times the concentration of VU0416476 were brought to a final concentration of 5% SDS, reduced with 20 mM DTT at 55°C for 20 min, and alkylated with 40 mM iodoacetamide for 30 min in the dark at room temperature. The samples were then prepared for digestion on S‐Trap™ micro spin columns (ProtiFi) following the manufacturer's instructions. Aqueous phosphoric acid was added to a final concentration of 2.5%, followed by the addition of 90% methanol containing 100 mM TEAB (S‐Trap binding/wash buffer) at 6× the volume. Samples were loaded onto S‐Trap columns and centrifuged at 4000g. Columns were washed four times with binding/wash buffer. […] Eluted peptides were dried in a speed‐vac concentrator, reconstituted in aqueous 0.2% formic acid, and analyzed by LC‐coupled tandem mass spectrometry (LC–MS/MS) using similar methods to those described in the work of Howard et al. ([2024]). […] Peptides were eluted at a flow rate of 350 nL/min, using a 90‐min gradient, and were analyzed on an Orbitrap Exploris 480 mass spectrometer (Thermo Scientific). […]

Sequence of FEM1B‐12 (Q9UK73 1-356): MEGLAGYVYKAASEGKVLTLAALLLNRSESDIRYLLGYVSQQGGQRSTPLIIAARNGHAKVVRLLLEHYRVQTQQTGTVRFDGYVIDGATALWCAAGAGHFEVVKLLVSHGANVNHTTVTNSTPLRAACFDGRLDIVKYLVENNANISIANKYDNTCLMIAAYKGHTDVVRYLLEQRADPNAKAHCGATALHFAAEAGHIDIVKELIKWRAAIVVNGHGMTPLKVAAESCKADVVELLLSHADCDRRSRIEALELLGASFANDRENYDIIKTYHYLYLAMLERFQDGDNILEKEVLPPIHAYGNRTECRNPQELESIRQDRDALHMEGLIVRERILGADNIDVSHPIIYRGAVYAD

In the case of `N#CCCN(C(=O)CCl)c1ccc2c(c1)OCCO2` [EN106], the IC50 with recombinant mouse FEM1B is 2.2 µM. Moreover, the “site of covalent binding” value in the assay on FEM1B [1] is “covalently bind to Cys186”.
Regarding `CC(=O)c1cccc(NC(=O)c2cccs2)c1` [VU0013947], at FEM1B‐12, the Kd was determined as 80 µM and the “higher affinity than the reference molecule VU0417412” value turned out to be 3.5 ×.
As to `CC(C)(C)N1C(=O)c2ccc(C(=O)O)cc2C1=O` [VU0023775], the Kd on FEM1B‐12 worked out at 960 µM.
Still for that read-out and setting: the figure for `O=C(O)c1cccc(N2CCCC2=O)c1` [VU0081201] is 1130 µM.
`COCc1ccc(NC(=O)c2cccs2)cc1` [VU0175318]: at FEM1B‐12, the Kd is 100 µM and the “higher affinity than the reference molecule VU0417412” value is recorded as 2.8 ×.
In the case of `CC(C)c1ccc(NC(=O)c2cnccn2)cc1` [VU0412674], the Kd at FEM1B‐12 came out at 260 µM.
For `CC(C)(C)n1ncc(Cl)c(Cl)c1=O` [VU0416476], the “site of covalent attachment” value with FEM1B [2] was “covalently binds to Cys186”.
In the case of `O=C(Nc1ccc(F)cc1)c1cccs1` [VU0417412], the Kd at FEM1B‐12 worked out at 280 µM.
